In patent EP4537815A1, “COMPOSITION COMPRISING A LASSO PEPTIDE […] A PHARMACEUTICALLY ACCEPTABLE NANOEMULSION” (priority 2023, dated 2025):
Entries after “also recorded” stand apart in the source; their conditions may differ. Where a SMILES comes first, the peptide text is derived from it. Bridges are numbered along the chain shown (N, C = ends).

Columns and labels:
[1] = tested on: E. faecalis V583 (exhibiting VanB resistance); assay: Vancomycin MIC by microdilution (CLSI) in GM17, VanB-resistant strain, with or without lasso peptide; type: cell-based; conditions: VanB-type
Procedure: (§1) An evaluation of bacterial growth was performed in vitro to assess the bacterial response to either vancomycin or bacitracin, in the absence or in the presence of either sviceucin or siamycin I.
(§2) Each strain was cultured at 37 °C in M17 medium (Terzaghi and Sandine 1975) supplemented with 0.5 % (weight/volume) glucose (GM17 medium). Overnight cultures are grown in GM17 broth and are used to inoculate the cultures for MIC measurement.
(§3) Lyophilized lasso peptides were solubilized first at 800 µM in a 1:1 solution of sterilized pure water and methanol. This stock is used for subsequent dilutions in GM17.
(§4) The measurement of the minimal inhibitory concentration (MIC) of antibiotic (either vancomycin or bacitracin) was determined by the microdilution method in accordance with the guidelines of the Clinical and Laboratory Standards Institute (CLSI 2012), with GM17 medium used as a growth medium. Subsequent 2-fold serial dilutions of the antibiotic (either vancomycin or bacitracin) were performed to obtain concentrations ranging from 0.5 to 512 µg/mL.
(§5) The lasso peptides (either siamycin I or sviceucin) were added for the relevant conditions at a final concentration of 10 µM, 5 µM or 2.5 µM. Bacterial strains from overnight cultures were added with an inoculum of 5 x 10^5 CFU/mL. The MIC corresponds to the lowest concentration in the wells where no growth is observed. […]

[2] = tested on: bacitracin resistant Gram-positive bacteria belonging to the Enterococcus genus; assay: Bacitracin MIC by microdilution (CLSI) in GM17, with or without lasso peptide; type: cell-based
Procedure: as §1, §2, §3, §4, §5

[3] = tested on: E. faecium Bi21 (exhibiting VanA resistance), E. faecium Bi22 (exhibiting VanA resistance); assay: Vancomycin MIC by microdilution (CLSI) in GM17, VanA-resistant strains, with or without lasso peptide; type: cell-based
Procedure: as §1, §2, §3, §4, §5

[4] = tested on: E. faecalis V583, E. faecium Bi21, E. faecium Bi22; assay: In vitro bacterial growth in the presence of the lasso peptide alone; type: cell-based, Enterococcus
Procedure: as §1, §2, §3
The lasso peptides (either siamycin I or sviceucin) were added for the relevant conditions at a final concentration of 10 µM, 5 µM or 2.5 µM. Bacterial strains from overnight cultures were added with an inoculum of 5 x 10^5 CFU/mL. The MIC corresponds to the lowest concentration in the wells where no growth is observed.

| Compound | effect on vancomycin resistance ([1]; lasso peptide at 10 µM combined with vancomycin) | effect on bacitracin resistance ([2]; lasso peptide at 10 µM combined with bacitracin) | effect on vancomycin resistance ([1]; lasso peptide at 2.5 µM combined with vancomycin) | Vancomycin MIC (VanA-resistant strains) ([3]; in the presence of the lasso peptide at 5 µM) | effect on vancomycin resistance ([3]; lasso peptide at 2.5 µM combined with vancomycin, VanA-type) | effect on bacitracin resistance ([2]; lasso peptide at 2.5 µM combined with bacitracin) | Growth in the presence of the lasso peptide alone ([4]; lasso peptide at 2.5 µM) | Growth in the presence of the lasso peptide alone ([4]; lasso peptide at 5 µM) |
| --- | --- | --- | --- | --- | --- | --- | --- | --- |
| CC[C@H](C)[C@@H]1NC(=O)[C@H](Cc2c[nH]c3ccccc23)NC(=O)[C@H](C)NC(=O)[C@H]([C@@H](C)O)NC(=O)CNC(=O)[C@@H]2CSSC[C@@H]3NC(=O)C[C@H](NC(=O)[C@H]([C@@H](C)O)NC(=O)[C@H](CSSC[C@@H](C(=O)N[C@H](C(=O)O)C(C)C)NC1=O)NC(=O)[C@H](CC(=O)O)NC(=O)CNC(=O)CNC(=O)[C@H](Cc1c[nH]c4ccccc14)NC(=O)[C@H](C(C)C)NC3=O)C(=O)N[C@@H](Cc1ccccc1)C(=O)N[C@@H](CC(C)C)C(=O)NCC(=O)N2 [Sviceucin, sviceucin] (CVWGGDCTDFLGCGTAWICV-OH; disulfide 1-13, 7-19 (inferred); lactam N-9 (inferred); C-terminus assumed) | reverses vancomycin resistance | reverses bacitracin resistance | – | – | – | – | – | – |
| CC[C@H](C)[C@@H]1NC(=O)[C@H](C)NC(=O)[C@H](Cc2ccc(O)cc2)NC(=O)CNC(=O)[C@@H]2CSSC[C@@H]3NC(=O)C[C@H](NC(=O)[C@H](CC(N)=O)NC(=O)[C@H](CSSC[C@@H](C(=O)N[C@@H](Cc4ccccc4)C(=O)N[C@@H](Cc4c[nH]c5ccccc45)C(=O)O)NC(=O)[C@H](C(C)C)NC1=O)NC(=O)[C@H](CO)NC(=O)CNC(=O)[C@H](C(C)C)NC(=O)CNC(=O)[C@H](CC(C)C)NC3=O)C(=O)N[C@@H](Cc1ccccc1)C(=O)N[C@@H](C)C(=O)NCC(=O)N2 [Siamycin I, siamycin I] (CLGVGSCNDFAGCGYAIVCFW-OH; disulfide 1-13, 7-19 (inferred); lactam N-9 (inferred); C-terminus assumed) | – | – | reverses vancomycin resistance | 0 µg/mL | reverses vancomycin resistance | reverses bacitracin resistance | Growth slowed down but not inhibited | exhibits a growth inhibition activity; also recorded: Growth inhibited |
